# Results published in ChEMBL document CHEMBL1949514, “Design, Synthesis, and Antitumor Activity of 4-Halocolchicines and Their Pro-drugs Activated by Cathepsin B” (ACS Med Chem Lett, 2011).
# Experiments:
# HT-29 = assay: Cytotoxicity against human HT-29 cells after 96 hrs using tetracolor one; assay type: functional, cell-based; conditions: HT-29, 96 h
# A549 = assay: Cytotoxicity against human A549 cells after 96 hrs using tetracolor one; assay type: functional, cell-based; conditions: A549, 96 h
# HCT-116 [1] = assay: Cytotoxicity against human HCT116 cells after 96 hrs using tetracolor one; assay type: functional, cell-based; conditions: HCT-116, 96 h
# HCT-116 [2] = assay: Antitumor activity against human HCT116 cells xenografted in BALB/c mouse assessed as tumor growth inhibition at […], ip administered on day 1 to day 5 and day 8 to day 12 measured on day 21 relative to control; assay type: functional; conditions: HCT-116, ip, dose 0.25 mg/kg, route intraperitoneal, read-out: TGI
# HCT-116 [3] = assay: Antitumor activity against human HCT116 cells xenografted in BALB/c mouse assessed as tumor growth inhibition at 1 mg/kg, ip administered on day 1 to day 5 and day 8 to day 12 measured on day 21 relative to control; assay type: functional; conditions: HCT-116, ip, route intraperitoneal, read-out: TGI
# Mus musculus [4] = assay: Toxicity in human HCT116 cells xenografted BALB/c mouse assessed as mortality at […], ip administered on day 1 to day 5 and day 8 to day 12 measured on day 21; assay type: organism-based, HCT-116; design: dose 0.25 mg/kg, route intraperitoneal; conditions: in vivo
# Mus musculus [5] = assay: Toxicity in human HCT116 cells xenografted BALB/c mouse assessed as mortality at 1 mg/kg, ip administered on day 1 to day 5 and day 8 to day 12 measured on day 21; assay type: organism-based, HCT-116; design: dose 1 mg/kg, route intraperitoneal; conditions: in vivo
# HCT-116 [6] = assay: Antitumor activity against human HCT116 cells xenografted in BALB/c mouse assessed as tumor growth inhibition at 5 mg/kg, ip administered on day 1 to day 5 and day 8 to day 12 measured on day 21 relative to control; assay type: functional; conditions: HCT-116, ip, route intraperitoneal, read-out: TGI
# Mus musculus [7] = assay: Toxicity in human HCT116 cells xenografted BALB/c mouse assessed as mortality at 5 mg/kg, ip administered on day 1 to day 5 and day 8 to day 12 measured on day 21; assay type: organism-based, HCT-116; design: dose 5 mg/kg, route intraperitoneal; conditions: in vivo
# [8] = Prodrug conversion assessed as (S)-7-Amino-1,2,3,10-tetramethoxy-6,7-dihydro-5H-benzo[a]heptalen-9-one release at 4 uM in presence of bovine spleen cathepsin-B by HPLC analysis; assay type: physicochemical; conditions: cattle
# [9] = Chemical stability of the compound after 24 hrs by HPLC analysis; assay type: physicochemical
# HUVEC [10] = assay: Cytotoxicity against human HUVEC cells after 96 hrs using tetracolor one; assay type: ADME, cell-based
# HUVEC [11] = assay: Selectivity ratio of IC50 for human HUVEC cells to IC50 for human HT-29 cells
# [12] = Prodrug conversion assessed as (S)-7-Amino-4-fluoro-1,2,3,10-tetramethoxy-6,7-dihydro-5H-benzo[a]heptalen-9-one release at 4 uM in presence of bovine spleen cathepsin-B by HPLC analysis; assay type: physicochemical; conditions: cattle
# HCT-116 [13] = assay: Antitumor activity against human HCT116 cells xenografted in BALB/c mouse assessed as tumor growth inhibition at 1 mg/kg, ip administered on 1, 3 and 5th day measured on day 21 relative to control; assay type: functional; conditions: HCT-116, ip, 504 h, route intraperitoneal, read-out: TGI
Compound,IC50 (HT-29),IC50 (A549),IC50 (HCT-116 [1]),also measured
COc1c(C=O)c2c(c(OC)c1OC)-c1ccc(OC)c(=O)cc1[C@@H](NC(C)=O)CC2,128 nM,1010 nM,54 nM,–
COc1c(F)c2c(c(OC)c1OC)-c1ccc(OC)c(=O)cc1[C@@H](NC(C)=O)CC2,7 nM,33 nM,8 nM,inhibition in vivo at […] (HCT-116 [2]): 25%; inhibition in vivo at 1 mg/kg (HCT-116 [3]): 55.6%; Activity (Mus musculus [4]): Non-toxic; Activity (Mus musculus [5]): Non-toxic
COc1c(Cl)c2c(c(OC)c1OC)-c1ccc(OC)c(=O)cc1[C@@H](NC(C)=O)CC2,10 nM,12 nM,9 nM,inhibition in vivo at 5 mg/kg (HCT-116 [6]): 68.4%; Activity (Mus musculus [7]): Non-toxic
COc1c(Br)c2c(c(OC)c1OC)-c1ccc(OC)c(=O)cc1[C@@H](NC(C)=O)CC2,6 nM,14 nM,7 nM,–
COc1c(I)c2c(c(OC)c1OC)-c1ccc(OC)c(=O)cc1[C@@H](NC(C)=O)CC2,6 nM,32 nM,7 nM,–
COc1c(O)c2c(c(OC)c1OC)-c1ccc(OC)c(=O)cc1[C@@H](NC(C)=O)CC2,484 nM,225 nM,–,–
COc1c(N)c2c(c(OC)c1OC)-c1ccc(OC)c(=O)cc1[C@@H](NC(C)=O)CC2,1550 nM,2180 nM,–,–
COc1c(OC)c2c(c([N+](=O)[O-])c1OC)CC[C@H](NC(C)=O)c1cc(=O)c(OC)ccc1-2,31 nM,73 nM,38 nM,–
COc1cc2c(c(OC)c1OC)-c1ccc(OC)c(=O)cc1[C@@H](NC(=O)OCc1ccc(NC(=O)[C@H](CCCCN)NC(=O)[C@H](Cc3ccccc3)NC(=O)OCc3ccccc3)cc1)CC2,44 nM,–,–,Drug metabolism [8]: Active; Stability [9]: Stable; IC50 (HUVEC [10]): 75 nM; Ratio IC50 (HUVEC [11]): 1.7
COc1c(F)c2c(c(OC)c1OC)-c1ccc(OC)c(=O)cc1[C@@H](NC(=O)OCc1ccc(NC(=O)[C@H](CCCCN)NC(=O)[C@H](Cc3ccccc3)NC(=O)OCc3ccccc3)cc1)CC2,91 nM,–,–,Drug metabolism [12]: Active; Stability [9]: Stable; IC50 (HUVEC [10]): 151 nM; Ratio IC50 (HUVEC [11]): 1.7
COc1c(F)c2c(c(OC)c1OC)-c1ccc(OC)c(=O)cc1[C@@H](N)CC2,80 nM,101 nM,–,IC50 (HUVEC [10]): 75 nM; Ratio IC50 (HUVEC [11]): 0.9
COc1c(Cl)c2c(c(OC)c1OC)-c1ccc(OC)c(=O)cc1[C@@H](N)CC2,250 nM,301 nM,–,–
COc1cc2c(c(OC)c1OC)-c1ccc(OC)c(=O)cc1[C@@H](NC(C)=O)CC2 [COLCHICINE],8 nM,54 nM,11 nM,inhibition in vivo at 1 mg/kg (HCT-116 [13]): 32.8%
